Values of other authors as cited in US20140275257A1, “N-ACETYL CYSTEINE COMPOSITIONS IN THE TREATMENT OF SYSTEMIC LUPUS ERYTHEMATOSUS” (Foundation for the State University of New York, priority 2013, published 2014).

Tests used:
[1] = test system: MRL/lpr lupus mouse model; settings: cited from earlier work
[2] = test system: CD4+/CD25+/FoxP3+ T cells; settings: Lai et al. (2010); cited from earlier work
[3] = test system: human SLE patients; settings: patients resistant or intolerant to conventional medications; Fernandez et al. (2006); cited from earlier work
[4] = effects counter to those reported for NAC; Samstrand et al (1999); cited from earlier work

Compound	survival of lupusprone MRL/lpr lupus mouse model ([1]; Warner et al. (1994))	disease activity in murine lupus ([1]; blockade of mTOR)	CD4+/CD25+/FoxP3+ T cells in patients with SLE [2]	disease activity in human SLE patients [3]	bioactive at doses less than NAC [4]
CO[C@H]1C[C@@H]2CC[C@@H](C)[C@@](O)(O2)C(=O)C(=O)N2CCCC[C@H]2C(=O)O[C@H]([C@H](C)C[C@@H]2CC[C@@H](O)[C@H](OC)C2)CC(=O)[C@H](C)/C=C(\C)[C@@H](O)[C@@H](OC)C(=O)[C@H](C)C[C@H](C)/C=C/C=C/C=C/1C [rapamycin]	prolonged survival	improves disease activity	expanded	improves disease activity	
CC(=O)N[C@@H](CSSC[C@H](NC(C)=O)C(=O)O)C(=O)O [oxidized form of NAC]					10-100 fold
